Experimental data taken from the supplement of paper PMC10307832.

Tests used:
Experiment in all cases: relative viability (nuclei count vs DMSO), 5 days (fraction); higher = more cells survive
Entinostat + Trametinib = compound: Nc1ccccc1NC(=O)c1ccc(CNC(=O)OCc2cccnc2)cc1 [Entinostat] + CC(=O)Nc1cccc(-n2c(=O)n(C3CC3)c(=O)c3c(Nc4ccc(I)cc4F)n(C)c(=O)c(C)c32)c1 [Trametinib] (partner 0.02 µM)
In short: (§1)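 Each reported value is a median over duplicate plates. It expresses relative viability: treated-well nuclei count divided by vehicle-well nuclei count. Lung cancer cell lines in 1536-well plates were dosed by pin tool a day after seeding, alone with one drug or with a fixed anchor-drug dose plus five library-drug doses (not always all listed) in √10 steps, and nuclei were counted after 5 days.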

[1] = compound: C1COCCN1C2=NC(=NC3=C2OC4=C3C=CC=N4)C5=CC(=CC=C5)NC(=O)C6=CN=C(C=C6)N + O=C(c1cc(Cc2n[nH]c(=O)c3ccccc23)ccc1F)N1CCN(C(=O)C2CC2)CC1 [Olaparib] (partner 8 µM)
In short: as §1

SGI-1776 + Pictilisib = compound: CN1CCC(CNc2ccc3ncc(-c4cccc(OC(F)(F)F)c4)n3n2)CC1 [SGI-1776] + CS(=O)(=O)N1CCN(Cc2cc3nc(-c4cccc5[nH]ncc45)nc(N4CCOCC4)c3s2)CC1 [Pictilisib] (partner 1 µM)
In short: as §1

SGI-1776 + Pemetrexed = compound: CN1CCC(CNc2ccc3ncc(-c4cccc(OC(F)(F)F)c4)n3n2)CC1 [SGI-1776] + Nc1nc2[nH]cc(CCc3ccc(C(=O)N[C@@H](CCC(=O)O)C(=O)O)cc3)c2c(=O)[nH]1 [Pemetrexed] (partner 0.2 µM)
In short: as §1

Cell Line | relative viability (Entinostat + Trametinib; first compound 0.02 µM) | relative viability (Entinostat + Trametinib; first compound 0.06325 µM) | relative viability (Entinostat + Trametinib; first compound 0.2 µM) | relative viability (Entinostat + Trametinib; first compound 0.6325 µM) | relative viability (Entinostat + Trametinib; first compound 2 µM) | relative viability ([1]; first compound 0.02 µM) | relative viability ([1]; first compound 0.06325 µM) | relative viability ([1]; first compound 0.2 µM) | relative viability ([1]; first compound 0.6325 µM) | relative viability ([1]; first compound 2 µM) | relative viability (SGI-1776 + Pictilisib; first compound 0.08 µM) | relative viability (SGI-1776 + Pictilisib; first compound 0.8 µM) | relative viability (SGI-1776 + Pictilisib; first compound 2.53 µM) | relative viability (SGI-1776 + Pictilisib; first compound 8 µM) | relative viability (SGI-1776 + Pemetrexed; first compound 0.08 µM) | relative viability (SGI-1776 + Pemetrexed; first compound 0.8 µM) | relative viability (SGI-1776 + Pemetrexed; first compound 2.53 µM) | relative viability (SGI-1776 + Pemetrexed; first compound 8 µM)
NCI-H2347 | 0.254 | 0.273 | 0.218 | 0.205 | 0.222 | 0.532 | 0.625 | 0.571 | 0.517 | 0.532 | 0.614 | 0.941 | 0.734 | 0.614 | 0.471 | 0.419 | 0.469 | 0.338
NCI-H2009 | 0.312 | 0.354 | 0.325 | 0.294 | 0.238 | 0.695 | 0.674 | 0.689 | 0.725 | 0.687 | 0.764 | 0.93 | 0.682 | 0.474 | 0.912 | 1.05 | 1.15 | 0.954
HCC-827 | 0.516 | 0.474 | 0.406 | 0.338 | 0.203 | 0.567 | 0.61 | 0.771 | 0.575 | 0.589 | 1.02 | 1.21 | 1.09 | 0.877 | 0.393 | 0.268 | 0.24 | 0.226
NCI-H661 | 0.62 | 0.605 | 0.715 | 0.536 | 0.363 | 0.789 | 0.832 | 0.717 | 0.876 | 0.426 | 0.526 | 0.429 | 0.363 | 0.317 | 0.938 | 0.89 | 0.917 | 0.889
CAL-12T | 0.362 | 0.306 | 0.355 | 0.297 | 0.252 | 0.66 | 0.727 | 0.69 | 0.764 | 0.569 | 0.559 | 0.592 | 0.341 | 0.385 | 1.31 | 1.06 | 1.16 | 1.28
PC-14 | 0.653 | 0.61 | 0.502 | 0.145 | 0.0754 | 0.304 | 0.284 | 0.249 | 0.248 | 0.186 | 0.667 | 0.681 | 0.747 | 0.195 | 0.14 | 0.13 | 0.117 | 0.101
NCI-H23 | 0.411 | 0.475 | 0.483 | 0.394 | 0.215 | 0.417 | 0.314 | 0.281 | 0.3 | 0.226 | 0.558 | 0.448 | 0.449 | 0.387 | 0.763 | 0.799 | 0.659 | 0.569
SK-LU-1 | 0.445 | 0.617 | 0.463 | 0.361 | 0.402 | 0.429 | 0.432 | 0.607 | 0.478 | 0.355 | 0.609 | 0.623 | 0.409 | 0.361 | 1.02 | 0.932 | 1.1 | 0.781
